Square brackets hold non-standard residues; d marks the D form. Ends that are not written are not given here. pGlu = O=C1CC[C@@H](C(=O)O)N1
Tests used:
B1-receptor = target: T1, B1-receptor (Oryctolagus cuniculus, UniProt P48748); conditions: cited from earlier work
T1 construct: in B1-receptor-rich preparations, such as the rabbit aorta; host or cells: rabbit aorta tissue preparation
T1 sequence (P48748 1-352): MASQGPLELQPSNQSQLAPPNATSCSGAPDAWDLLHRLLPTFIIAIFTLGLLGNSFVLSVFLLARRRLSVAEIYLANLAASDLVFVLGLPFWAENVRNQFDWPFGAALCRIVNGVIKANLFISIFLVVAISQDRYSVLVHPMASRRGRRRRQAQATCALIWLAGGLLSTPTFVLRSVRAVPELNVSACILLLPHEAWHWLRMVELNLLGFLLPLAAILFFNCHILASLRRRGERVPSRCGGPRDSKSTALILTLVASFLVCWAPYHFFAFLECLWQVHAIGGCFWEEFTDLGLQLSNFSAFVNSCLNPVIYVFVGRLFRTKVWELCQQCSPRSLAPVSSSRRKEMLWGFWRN

[1] = test system: rat tail artery smooth muscle; assay: direct relaxation of phenylephrine pre-constricted rat tail artery preparation; conditions: synthetic replicate, in the effective molar concentration range of bradykinin, FIG. 4A
Method: Male albino Wistar rats (200-250 g) were euthanised by asphyxiation followed by cervical dislocation. The tail artery was prepared as described previously (Chen T et al, Peptides. 2002; 23:1547-1555, Chen T et al, Eur. J. Biochem. 2002; 269:4693-4700, Hirst et al Br. J. Radiol. 1994; 67:795-799). After perfusion of arterial preparations with 1×10^−5M phenylephrine to obtain constriction plateaux, relative relaxation was recorded as described below following applications of reconstituted 100 μl aliquots of HPLC fraction samples (1-240) from B. maxima skin secretion. This was carried out to exclude those fractions (25) containing direct arterial smooth muscle relaxant activity. […] Changes in arterial smooth muscle tone were measured by a pressure transducer system and the percentage relative relaxations induced by bradykinin in the presence of reconstituted fractions were calculated using the MacLab computer package.
Arterial smooth muscle preparations were prepared as described previously and treated with phenylephrine (1×10^−5M) until constriction plateaux were achieved. […] 2) The effect of prior addition of a range of concentrations of kinestatin on the observed activity of subsequently added bradykinin at its maximally effective concentration (10^−6M) was determined. […] During a 20 min perfusion period, changes in arterial pressure were recorded as described previously. […]

[2] = test system: human microvascular endothelial cell line (HMEC-1); assay: proliferation of endothelial cell line; type: cell-based; conditions: FIG. 11
Source text: FIG. 11 is a graph comparing the effect of control (▪), kinestsin (Q-9-R-(-7) (▴) and fumagillin (▾) on the proliferation of the human microvascular endothelial cell line (HMEC-1).

[3] = test system: endothelial tube structures on Matrigel matrix plates; assay: Matrigel tube formation assay; type: cell-based; conditions: FIG. 8
Source text: FIG. 8 is a graph comparing the ability of kinestatin (▪) and fumagillin (▴) to inhibit the formation of endothelial tube structures on Matrigel matrix plates.

[4] = test system: human microvascular endothelial cells (HMEC-1); assay: endothelial cell migration into 1 cm wound in cell monolayer; type: cell-based
Method: FIG. 9 is a graph comparing the ability of kinestatin (▪) and fumagillin (▾) to inhibit the migration of human microvascular endothelial cells (HMEC-1) into a wound in a dose- and time-dependent manner
FIG. 10 is a time response curve showing the delay in complete closure of endothelial cell 1 cm wounds in the presence of kinestatin (▪) and non-treated control cells (▴).
Expt. […] Kinestatin prolonged wound closure time by 100% from 7 h (control) to 14 h (treatment) (FIG. 10).

bradykinin B2 receptors = target: T2, bradykinin B2 receptors (Rattus norvegicus, UniProt P25023); assay: inhibition of bradykinin-induced relaxation in phenylephrine pre-constricted rat tail artery preparation
T2 construct: phenylephrine pre-constricted rat tail artery preparation; from tissue; host or cells: rat tail artery (arterial smooth muscle preparation)
T2 sequence (P25023 1-396): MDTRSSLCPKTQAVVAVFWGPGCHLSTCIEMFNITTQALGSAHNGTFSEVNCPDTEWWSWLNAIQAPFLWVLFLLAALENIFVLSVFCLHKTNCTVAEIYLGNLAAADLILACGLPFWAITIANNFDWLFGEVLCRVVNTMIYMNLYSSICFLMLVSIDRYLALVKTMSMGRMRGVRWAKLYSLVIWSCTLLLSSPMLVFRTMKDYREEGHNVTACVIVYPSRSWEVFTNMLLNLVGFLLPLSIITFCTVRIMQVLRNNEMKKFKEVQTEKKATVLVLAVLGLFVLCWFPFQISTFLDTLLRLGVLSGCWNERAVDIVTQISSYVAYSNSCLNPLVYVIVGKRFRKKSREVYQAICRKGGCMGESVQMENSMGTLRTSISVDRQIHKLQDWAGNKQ
Method: Male albino Wistar rats (200-250 g) were euthanised by asphyxiation followed by cervical dislocation. The tail artery was prepared as described previously (Chen T et al, Peptides. 2002; 23:1547-1555, Chen T et al, Eur. J. Biochem. 2002; 269:4693-4700, Hirst et al Br. J. Radiol. 1994; 67:795-799). After perfusion of arterial preparations with 1×10^−5M phenylephrine to obtain constriction plateaux, relative relaxation was recorded as described below following applications of reconstituted 100 μl aliquots of HPLC fraction samples (1-240) from B. maxima skin secretion. […] The preparations were perfused as before with phenylephrine (1×10^−5M) until constriction plateaux were obtained. Following this, combinations of phenylephrine (1×10^−5M) and reconstituted non-myoactive fractions were perfused through individual preparations for 20 min. Immediately after this, the perfusate was replaced by a combination of phenylephrine (1×10^−5M), bradykinin (1×10^−6M) and reconstituted individual fractions. Changes in arterial smooth muscle tone were measured by a pressure transducer system and the percentage relative relaxations induced by bradykinin in the presence of reconstituted fractions were calculated using the MacLab computer package.
Arterial smooth muscle preparations were prepared as described previously and treated with phenylephrine (1×10^−5M) until constriction plateaux were achieved. Following this a series of experiments were performed to address the pharmacological characterization of the novel peptide, kinestatin. 1) Separate dose response curves were constructed for bradykinin and kinestatin using concentrations of both peptides in the range of 10^−11 to 10^−5M. […] The preparations were prepared as described before. […] Following this, phenylephrine (1×10^−5M) was added to the antagonist solution and perfused for 10 min to develop contraction of the arterial smooth muscle. On obtaining stable plateaux of constriction, the perfusate was replaced by another containing phenylephrine, antagonist and bradykinin (1×10^−6M). During a 20 min perfusion period, changes in arterial pressure were recorded as described previously. In a second similar series of experiments, kinestatin (1×10^−8M) was added to each of the specific bradykinin receptor sub-type antagonist solutions prior to the procedure described above. Data were analysed by computer using Students t test available on the Graph Pad Prism™ programme.

[5] = test system: recombinantly-expressed receptor (of ornithokinin); conditions: cited from earlier work
[6] = target: autologous receptor (of ornithokinin) cloned from chicken; conditions: (Tyr^0)-radioiodinated ornithokinin as competing ligand; read-out: affinity; cited from earlier work

In the case of “RPPGFSPLR [Leu^8-bradykinin, bradykinin analogue, found in pickerel frog skin]”, the “antagonism of bradykinin and des-Arg^9 bradykinin” value (B1-receptor; B1-receptor-rich preparations, rabbit aorta) is given as “potent antagonist” and the bradykinin agonist activity (B1-receptor; previous pharmacological studies) is given as “devoid of bradykinin agonist activity”.

With “pGlu-Ile-Pro-Gly-Leu-Gly-Pro-Leu-Arg.NH2 ([pGlu]IPGLGPLR-NH2; SMILES CC[C@H](C)[C@H](NC(=O)[C@@H]1CCC(=O)N1)C(=O)N1CCC[C@H]1C(=O)NCC(=O)N[C@@H](CC(C)C)C(=O)NCC(=O)N1CCC[C@H]1C(=O)N[C@@H](CC(C)C)C(=O)N[C@@H](CCCNC(=N)N)C(N)=O; listed as Bombina maxima) [kinestatin, bradykinin B2 receptor antagonist nonapeptide from skin secretion of Bombina maxima; synthetic replicate tested]” the myorelaxant activity [1] was “devoid of myorelaxant activity”, the cell proliferation [2] was “profound effects on inhibition of cell proliferation” and the “effect on tube formation” value [3] was “inhibitory effect”. The “maximal inhibitory effect on migration” value ([4]; FIG. 9) was “same maximal inhibitory effect”, the “potency relative to fumagillin” value ([4]; FIG. 9) was “more potent on a molar basis” and the endothelial cell migration ([4]; time to half closure of 1 cm wide wound) was “inhibition in endothelial cell migration”. The wound closure time ([4]; treatment, FIG. 10) was 14 h, the “prolongation of wound closure time” value ([4]; versus control, FIG. 10) was 100% and the “potency as bradykinin antagonist relative to Leu^8 bradykinin” value (bradykinin B2 receptors) was roughly 10 ×. The “inhibition of bradykinin-induced relaxation in HOE 140-treated preparations” value (bradykinin B2 receptors; kinestatin 1×10^−8M added, HOE 140 3×10^−7M, p=0.0015, n=6) was “significant inhibition”, the “inhibition of bradykinin-induced relaxation in des Arg HOE 140-treated preparations” value (bradykinin B2 receptors; kinestatin 1×10^−8M added, des Arg HOE 140 3×10^−7M, p=0.033, n=6) was “significant inhibition” and the “effect on bradykinin-induced relaxation dose response curve” value (bradykinin B2 receptors; kinestatin at 1×10^−8M, FIG. 4C) was “Virtual total abolition”. For the same compound, the maximally inhibitory concentration (bradykinin B2 receptors; prior addition, bradykinin dose response) was 10^−8 M, the “receptor mediating the inhibition” value (bradykinin B2 receptors; rat tail arterial smooth muscle) was “antagonism at B2 receptors” and the “block of maximal bradykinin relaxing activity” value (bradykinin B2 receptors; ten nanomolar kinestatin, one micromolar bradykinin) was “almost totally blocked”. For the same compound, the mechanism of inhibition (bradykinin B2 receptors; within this concentration range) was “non-competitive mechanism”.

For “Arg-Arg-Pro-Hyp-Gly-Thi-Ser-Tic-Oic-Arg [HOE-140]”, the function at receptor [5] is given as “partial agonist”.

With `CO[C@@H]1[C@H](OC(=O)/C=C/C=C/C=C/C=C/C(=O)O)CC[C@]2(CO2)[C@H]1[C@@]1(C)O[C@@H]1CC=C(C)C` [fumagillin, reference compound] the cell proliferation [2] was “profound effects on inhibition of cell proliferation”, the “effect on tube formation” value [3] was “inhibitory effect” and the “maximal inhibitory effect on migration” value ([4]; FIG. 9) was “same maximal inhibitory effect”.

For RPPGFTPLR [ornithokinin], the Kd [6] is given as 4.7 nM.
